Assay results: PubChem BioAssay AID2305 (GlaxoSmithKline (GSK), 2010)

The molecules below were run on P. falciparum 3D7 growth, pLDH absorbance (assay: blood-stage malaria parasite growth potency – strain 3D7, dose response (AID 2305)).

Compound	IC50 [nM]
O=C(Nc1ccc2c(c1)CCC2)N[C@H]1CCN(CCCCCNC(=O)[C@@H]2C[C@H]2c2ccc(Cl)c(Cl)c2)C1	1080
N#Cc1cc(C(=O)c2cc(Cl)ccc2O)cn(-c2cc(Cl)cc(Cl)c2)c1=O	850
Cc1nc(-c2cccc(Nc3nccc(NCC(O)c4ccc(C(F)(F)F)cc4)n3)c2)cs1 (configuration not stated)	510
O=C(Nc1cccc(-c2ccc(-c3nc4ccccc4[nH]3)cc2)c1)c1cnn2cccnc12	1060
Cc1cccc(-c2ccc(CNC3CCN(CC4Cn5c(=O)ccc6ccc(F)c4c65)CC3)cn2)c1 (configuration not stated)	1530
O=C(Cn1c(CCc2cccc(F)c2F)nc(=O)c2ccccc21)N(CCN1CCCCC1)Cc1ccc(-c2ccc(C(F)(F)F)cc2)cc1	760
COc1ccc2ncc(F)c(NC(=O)C3CCC(NCc4cc5c(F)cccc5[nH]4)CC3)c2n1 (configuration not stated)	1090
COc1cc(Cc2cnc(N)nc2N)cc(OC(C)C)c1OC	1040
Cc1cc2nc(-c3ccc(C(=O)NCc4ccc(C(C)(C)C)cc4)cc3)[nH]c2cc1C	770
Cc1cc(NN=Cc2ccc(Cl)cc2)c2ccc(F)cc2n1	760
CCc1cc(N2CCN(c3ccccc3F)CC2)nc(SCc2ccc(C(=O)NC3CC3)o2)n1	890
c1csc(-c2nc(N3CCCC3)ncc2-c2ccsc2)n1	210
Cc1ccccc1NC1=NC(=S)N(c2cccc(C(F)(F)F)c2)C12CCC(C(C)(C)C)CC2 (configuration not stated)	970
Cc1[nH]cnc1CSCCNC(=NCCCCCCCCN=C(NC#N)NCCSCc1nc[nH]c1C)NC#N	1270
COc1cc2ccccc2cc1CNCCCCCCNCc1cc2ccccc2cc1OC	720
O=C(O)C[C@H](NC(=O)CCCNC(=O)c1cccc(-c2ccc(Cl)c(Cl)c2)c1)C(=O)O	880
COc1ccc2nc3cc(Cl)ccc3c(NCCNCC(O)CO)c2n1 (configuration not stated)	150
COc1ccc2nccc([C@@H](O)CN3CCC(NC(=O)C(c4cc5ccccc5o4)N4CCC(Cc5ccccc5)CC4)CC3)c2c1 (some centres not stated)	250
CCOc1ccc(N(CC)S(=O)(=O)c2cc(Br)cc3c2N(C(=O)C2CC2)CC3)cc1	130
CCOc1ccc(C=CC(=O)Nc2ccc3nc(N4CCN(C)CC4)cc(C)c3c2)cc1OC	400
CCCCCCn1c(Sc2ccc(C#N)c([N+](=O)[O-])c2)nnc1-c1ccc(OC)cc1	850
Cc1ccc2[nH]c3c(NCCCN4CCOCC4)ncnc3c2c1	940
O=C1Nc2cccc3c2C1(CCCCN1CCC(c2c[nH]c4cc(C(F)(F)F)ccc24)CC1)CCC3 (configuration not stated)	720
COc1ccc(OC)c(C(O)CNC(C)C)c1 (configuration not stated)	60

Compound	IC50 [nM]
COCCNCc1cccc(-c2ccc(CNC3CCN(Cc4ccccc4)CC3)cc2)c1	510
CCCc1cc(Cc2cnc(N)nc2N)cc(CCC)c1OC	890
CC(C)c1ccc2c(c1)c(SC(C)(C)C)c(CC(C)(C)C#N)n2Cc1ccc(Cl)cc1	220
CCCc1cc(NCc2ccncc2)nc(Nc2ccc(F)cc2)n1	1120
O=C(Nc1cccc(CN2CCCN(Cc3ccc4c(c3)OCO4)CC2)c1)c1ccc(-c2ccccc2)cc1	650
COc1cc(C=NNc2cc(C)nc3ccccc23)cc(OC)c1OC	730
COc1ccc(-c2cccc(NC(=O)c3ccc(Cl)cc3)c2)cc1CN1CCNCC1	840
Clc1nc(Cl)c2c(ccn2Cc2ccccc2)n1	790
COc1ccc(NC(=O)c2ccc3[nH]c(-c4ccc(Cl)cc4)cc3c2)cc1OCCN(C)C	810
NCc1ccc(CNCc2cccc(-c3ccc(-c4nc5ccccc5[nH]4)cc3)c2)cc1	720
CCCOc1ccc(CNCCCCCCNCc2ccc(OCCC)c3ccccc23)c2ccccc12	410
CC[C@H]1CN2CC[C@@H]1C[C@H]2[C@H](O)c1cc(-c2ccccc2)nc2ccc(O)cc12	190
COc1cc2nc(-c3ccccc3)nc(N3CCN(CC(=O)N4CCCC4)CC3)c2cc1OC	1130
Nc1nc(Nc2cccc(O)c2)nc2ccccc12	790
COc1ccc2c(NN=Cc3ccccn3)ccnc2c1	370
Cc1cccc2[nH]c(-c3ccc(-c4ccc(NC(=O)Nc5ccc(Cl)cc5)cc4)cc3)nc12	100
C#CCCOc1ccc2ccccc2c1CNCCCCCCNCc1c(OCCC#C)ccc2ccccc12	810
O=C1C[C@@H]([S@@](=O)Cc2nccs2)N1CCOCCCCCCc1ccc(Cl)cc1	1020
Cc1cc(Nc2ccc(O)cc2)nc2cccc(O)c12	740
CCCN1CCc2c(sc3nc(SCC(=O)Nc4ccc(C)cc4)n(-c4ccc(C)cc4)c(=O)c23)C1	870
Cc1cccc(Cl)c1S(=O)(=O)N1CCCCC(c2ccc(C(F)(F)F)cc2)=N1	220
O=C(Nc1cc(C(F)(F)F)cc(C(F)(F)F)c1)c1cc(Cl)ccc1O	1310
Cc1nnc2c(NC(=O)NC3CCCC3)cc3cc(-c4ccc(CN5CCCCC5)cc4)ccc3n12	950
OC(CNc1ccnc(Nc2ccccc2)n1)c1cccc(C(F)(F)F)c1 (configuration not stated)	650

Compound	IC50 [nM]
CN(C)c1cccc(CCNCCc2c[nH]c3ccc(Cl)cc23)c1	440
COc1ccc2c(=O)c(I)c(C)[nH]c2c1	440
CC(=O)Nc1nnc(SCc2c(C)cc(C(C)(C)C)cc2C)s1	700
CN(C)CCCOc1ccc(-c2csc(NC(N)=NCc3ccccc3)n2)cc1	280
COc1cc(CNC[C@@H](O)[C@H](Cc2ccccc2)NC(=O)c2cc(C3CCCC3)cc(N3CCCS3(=O)=O)c2)cc(OC)c1	1240
O=C1Nc2cccc3c2C1(CCCCN1CC=C(c2c[nH]c4ncccc24)CC1)CCC3 (configuration not stated)	400
Cc1ccc2nc(-c3ccc(C(=O)NC4CCN(Cc5ccccc5)CC4)s3)[nH]c2c1	1010
CC1(C)OC[C@]2(C)[C@@H](CC[C@]3(C)C4=CC(=O)CCC4CC[C@@H]23)O1 (some centres not stated)	280
O=c1[nH]c2ccc3[nH]cccc3c2c1C=Nc1ccc(N2CCN(CCO)CC2)cc1	1270
Cc1cc(C)c(CC(C)NCC(O)c2cccc(C(F)(F)F)c2)c(C)c1 (configuration not stated)	570
Cn1c(NCc2cc(F)cc3c2OCOC3)nc2cc(Nc3ccnc(Nc4cccc(CS(C)(=O)=O)c4)n3)ccc21	150
CCN(CCO)CCc1cccc(Nc2nccc(-c3c(-c4ccc(NC(=O)C(C)(C)C)cc4)nn4ccccc34)n2)c1	710
CCOc1ccccc1CNc1nccc(NCc2ccccc2OC)n1	1490
COc1ccc(OCCCN2CCN(CC(c3ccc(F)cc3)N3CCN(C(C)C)CC3)CC2)c2ccccc12 (configuration not stated)	650
COc1cc(CNc2ncc(-c3ccsc3)c(-c3nccs3)n2)cc(OC)c1	130
O=C(NCCCc1ccccc1)c1ccc(O)c(-c2cc(Cl)cc(Cl)c2)c1	570
COc1ccccc1CCNc1nc(C)cc(NCCC(=O)NCCOc2ccccc2)n1	1370
COc1ccc(C2C(C(=O)Nc3ccccc3)=C(C)Nc3c(C(=O)Nc4ccccc4)cnn32)cc1 (configuration not stated)	1310
O=C(NCC(c1ccc(C(F)(F)F)cc1)N1CCCC1)c1cc(-c2ccncc2)c(-c2cccc(O)c2)o1 (configuration not stated)	1060
COc1cc([N+](=O)[O-])ccc1NC(=O)Nc1ccc(OC(F)(F)F)cc1	1030
CCCC(C)c1cnc2nc(N)nc(N)c2c1C (configuration not stated)	30
CN(CC(=O)N1CCN(S(=O)(=O)c2cccc(Cl)c2)CC1CN1CCCC1)c1ccc(Cl)c(Cl)c1 (configuration not stated)	1240
Cc1ccc(Nc2nc3cc(N(C)c4ccnc(Nc5cccc(CCS(C)(=O)=O)c5)n4)ccc3n2C)cc1	340
CC1(C)C(=O)Nc2ccccc2N1C(=O)CN1CCN(c2ccccc2O)CC1	1070
